{
  "source": "patent US11077177B2",
  "about": "“Universal cancer vaccine” (priority 2016, dated 2021)",
  "key": {"CD 8+ T cell repertoire": {"test_system": "CD 8+ T cell repertoire", "experiment": "Tetramer staining of peripheral blood mononuclear cells by flow cytometry after immunization with an altered peptide (FIG. 3B)", "format": "cell-based"}, "[1]": {"test_system": "HLA molecule (types A1, A2, A3, A11, A24, B7 and B44)", "experiment": "HLA type bound by altered telomerase peptides (Table 1)", "format": "binding, human", "settings": "MHC class I HLA type bound by the peptide; no test method described; listed as SEQ ID NO: 13"}},
  "data": [
    {"sequence": "YLFFYRKSV (listed as Homo sapiens) [SEQ ID 13]", "values": [
      {"measurement": "expansion of CD 8+ T cell repertoire cross-reacting with the naturally occurring peptide", "setting": "CD 8+ T cell repertoire", "result": "this approach is feasible"},
      {"measurement": "HLA TYPE BOUND", "setting": "[1]", "result": "HLA-A2"}
    ]}
  ]
}
